Data from US11780830B2, “Triazolone derivatives or salts thereof and pharmaceutical compositions comprising the same” (YUHAN CORPORATION, priority 2018, dated 2023).
Structures can show the parent of a compound that is named as a salt.

Legend:
Type in all cases: biochemical
recombinant human VAP-1 = target: T1, recombinant human VAP-1 (Homo sapiens, UniProt Q16853); assay: Activity on recombinant human VAP-1, HRP-coupled Amplex Red hydrogen peroxide assay; conditions: substrate 1 mM benzylamine; compound incubated with enzyme at 37° C. for 30 minutes; pH 7.4; read-out: Inhibitory Activity (IC50, nM) human VAP-1
T1 construct: purchased R&D systems
T1 sequence (Q16853 1-763): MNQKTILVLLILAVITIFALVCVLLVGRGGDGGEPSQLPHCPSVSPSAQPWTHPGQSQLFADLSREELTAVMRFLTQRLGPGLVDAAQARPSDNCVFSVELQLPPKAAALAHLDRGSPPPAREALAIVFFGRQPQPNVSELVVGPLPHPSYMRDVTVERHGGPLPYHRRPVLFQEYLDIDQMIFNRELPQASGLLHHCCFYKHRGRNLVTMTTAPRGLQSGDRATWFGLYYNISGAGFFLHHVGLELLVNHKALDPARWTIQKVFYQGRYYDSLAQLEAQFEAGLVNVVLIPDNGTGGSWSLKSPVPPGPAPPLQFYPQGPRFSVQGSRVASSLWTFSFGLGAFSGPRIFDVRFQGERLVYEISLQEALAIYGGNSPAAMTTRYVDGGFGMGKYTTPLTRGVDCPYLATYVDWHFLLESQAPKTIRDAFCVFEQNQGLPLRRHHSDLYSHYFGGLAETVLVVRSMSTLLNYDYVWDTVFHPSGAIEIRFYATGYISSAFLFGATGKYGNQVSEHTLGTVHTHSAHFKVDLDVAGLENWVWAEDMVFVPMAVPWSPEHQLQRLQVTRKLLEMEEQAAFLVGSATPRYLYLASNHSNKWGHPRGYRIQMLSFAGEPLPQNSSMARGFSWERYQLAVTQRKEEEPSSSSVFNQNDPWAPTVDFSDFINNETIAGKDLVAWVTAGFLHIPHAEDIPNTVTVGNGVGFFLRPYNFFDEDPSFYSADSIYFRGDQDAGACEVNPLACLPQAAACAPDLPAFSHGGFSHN
Method in brief: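 Fluorescence of resorufin formed from H2O2 (ex 544 nm, em 590 nm) was tracked for 1-2 h after adding 1 mM benzylamine, 200 uM Amplex Red and 1 U/mL HRP to enzyme pretreated with compound for 30 min at 37 °C. IC50 values derive from four-variable logistic fits.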

[1] = target: T2, recombinant human MAO-A (monoamine oxidase-A) (Homo sapiens, UniProt P21397); assay: Activity on recombinant human MAO-A, method similar to the VAP-1 assay; conditions: substrate 0.5 mM tyramine; read-out: Inhibitory Activity (IC50, nM) MAO-A
T2 construct: purchased Sigma-Aldrich
T2 sequence (P21397 1-527): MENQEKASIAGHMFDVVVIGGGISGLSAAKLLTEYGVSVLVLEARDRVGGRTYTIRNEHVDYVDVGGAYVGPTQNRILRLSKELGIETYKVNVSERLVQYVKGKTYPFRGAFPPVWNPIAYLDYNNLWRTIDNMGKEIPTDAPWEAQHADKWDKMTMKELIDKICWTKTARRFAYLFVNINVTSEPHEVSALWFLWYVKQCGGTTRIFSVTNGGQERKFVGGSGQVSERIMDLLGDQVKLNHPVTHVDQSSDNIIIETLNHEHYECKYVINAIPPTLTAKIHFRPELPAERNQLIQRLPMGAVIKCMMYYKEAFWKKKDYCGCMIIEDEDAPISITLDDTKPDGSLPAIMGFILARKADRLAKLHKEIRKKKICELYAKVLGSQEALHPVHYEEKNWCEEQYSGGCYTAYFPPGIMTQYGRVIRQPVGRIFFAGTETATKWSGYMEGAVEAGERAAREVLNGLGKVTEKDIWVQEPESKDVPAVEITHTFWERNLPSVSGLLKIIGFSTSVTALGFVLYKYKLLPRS
Method in brief: (§1)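 Fluorescence (544/590 nm) of resorufin formed from Amplex Red by HRP and enzyme-generated H2O2 was followed over 1-2 h. Substrates were 0.5 mM tyramine for MAO-A and 1 mM benzylamine for MAO-B; compounds were preincubated with enzyme for 30 min at 37° C. IC50 came from four-parameter logistic fitting of signal-rate inhibition.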

[2] = target: T3, recombinant human MAO-B (monoamine oxidase-B) (Homo sapiens, UniProt P27338); assay: Activity on recombinant human MAO-B, method similar to the VAP-1 assay; conditions: substrate 1 mM benzylamine; read-out: Inhibitory Activity (IC50, nM) MAO-B
T3 construct: purchased Sigma-Aldrich
T3 sequence (P27338 1-520): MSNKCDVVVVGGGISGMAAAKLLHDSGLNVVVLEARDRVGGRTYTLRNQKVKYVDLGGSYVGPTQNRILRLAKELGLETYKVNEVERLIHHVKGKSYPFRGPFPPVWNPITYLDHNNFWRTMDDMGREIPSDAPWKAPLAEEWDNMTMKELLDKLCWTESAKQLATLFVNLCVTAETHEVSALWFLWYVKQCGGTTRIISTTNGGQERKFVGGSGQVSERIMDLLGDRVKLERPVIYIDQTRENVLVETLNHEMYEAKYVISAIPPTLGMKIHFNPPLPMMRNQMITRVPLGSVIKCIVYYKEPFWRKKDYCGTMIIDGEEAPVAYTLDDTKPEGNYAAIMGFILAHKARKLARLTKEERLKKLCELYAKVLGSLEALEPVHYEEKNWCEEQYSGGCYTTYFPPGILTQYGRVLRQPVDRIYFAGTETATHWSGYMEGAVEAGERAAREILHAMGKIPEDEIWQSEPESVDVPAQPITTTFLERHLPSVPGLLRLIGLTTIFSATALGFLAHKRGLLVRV
Method in brief: as §1

[3] = target: T4, recombinant human DAO (diamine oxidase) (Homo sapiens, UniProt P19801); assay: Activity on recombinant human DAO, method similar to the VAP-1 assay; conditions: substrate 1 mM putrescine; read-out: Inhibitory Activity (IC50, nM) DAO
T4 construct: purchased R&D systems
T4 sequence (P19801 20-751): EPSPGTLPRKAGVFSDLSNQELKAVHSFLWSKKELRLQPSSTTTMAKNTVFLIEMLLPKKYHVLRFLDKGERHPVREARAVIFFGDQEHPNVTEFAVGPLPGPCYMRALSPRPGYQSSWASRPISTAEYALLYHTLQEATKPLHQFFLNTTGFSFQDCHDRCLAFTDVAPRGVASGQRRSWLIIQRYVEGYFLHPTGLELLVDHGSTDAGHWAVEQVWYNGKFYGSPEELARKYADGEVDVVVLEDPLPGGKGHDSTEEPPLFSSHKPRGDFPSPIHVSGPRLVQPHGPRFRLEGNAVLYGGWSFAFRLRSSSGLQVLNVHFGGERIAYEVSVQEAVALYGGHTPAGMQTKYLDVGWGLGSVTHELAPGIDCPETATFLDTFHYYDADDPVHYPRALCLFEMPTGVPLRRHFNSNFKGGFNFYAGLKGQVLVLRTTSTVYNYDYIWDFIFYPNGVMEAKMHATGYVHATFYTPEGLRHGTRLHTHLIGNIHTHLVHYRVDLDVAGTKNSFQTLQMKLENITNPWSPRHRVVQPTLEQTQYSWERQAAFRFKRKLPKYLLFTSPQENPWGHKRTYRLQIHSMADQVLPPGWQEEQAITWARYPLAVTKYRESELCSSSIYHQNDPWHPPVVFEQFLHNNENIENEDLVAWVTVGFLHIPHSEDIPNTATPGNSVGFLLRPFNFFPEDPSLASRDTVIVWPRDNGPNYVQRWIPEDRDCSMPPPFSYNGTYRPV
Method in brief: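 Inhibition of recombinant human diamine oxidase (DAO, R&D systems) was assessed by the same approach as the VAP-1 assay, using 1 mM putrescine as substrate. Hydrogen peroxide formed was detected through an HRP-coupled Amplex Red reaction yielding fluorescent resorufin, read at 544 nm excitation and 590 nm emission. IC50 values came from four-parameter logistic fitting in GraphPad Prism.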

| SMILES | IC50 (recombinant human VAP-1) [nM] | IC50 [1] [nM] | IC50 [2] [nM] | IC50 [3] [nM] |
| --- | --- | --- | --- | --- |
| CC1Oc2ccc(-c3ccc(Cn4cnn(C/C(=C/F)CN)c4=O)s3)cc2NC1=O (stereo not drawn) [Example 97, 6-[5-[[1-[(E)-2-(aminomethyl)-3-fluoro-allyl]-5-oxo-1,2,4-triazol-4-yl]methyl]-2-thienyl]-2-methyl-4H-1,4-benzoxazin-3-one hydrochloride] | 0.4 | 28000 | 380 | 230 |
| NC/C(=C\F)Cn1ncn(Cc2ccc(-c3ccc4c(c3)COC(=O)N4)s2)c1=O [Example 101, 6-[5-(1-[(2E)-2-(aminomethyl)-3-fluoroprop-2-en-1-yl]-5-oxo-1,5-dihydro-4H-1,2,4-triazol-4-ylmethyl)thiophen-2-yl]-1,4-dihydro-2H-3,1-benzoxazin-2-one hydrochloride] | 0.2 | > 100000 | 540 | 900 |
| Cc1c(-c2ccc(Cn3cnn(C/C(=C/F)CN)c3=O)s2)ccc2c1COC(=O)N2 [Example 102, 6-[5-[[1-[(E)-2-(aminomethyl)-3-fluoro-allyl]-5-oxo-1,2,4-triazol-4-yl]methyl]-2-thienyl]-5-methyl-1,4-dihydro-3,1-benzoxazin-2-one] | 0.2 | > 100000 | 480 | 760 |
| CN1CCOc2cc(-c3ccc(Cn4cnn(C/C(=C/F)CN)c4=O)s3)ccc21 [Example 103, 2-[(2E)-2-(aminomethyl)-3-fluoroprop-2-en-1-yl]-4-[5-(4-methyl-3,4-dihydro-2H-1,4-benzoxazin-7-yl)thiophen-2-yl]methyl-2,4-dihydro-3H-1,2,4-triazol-3-one hydrochloride] | 3.2 | 15000 | 1500 | 1100 |
| CN1CCNc2cc(-c3ccc(Cn4cnn(C/C(=C/F)CN)c4=O)s3)ccc21 [Example 104, 2-[(E)-2-(aminomethyl)-3-fluoro-allyl]-4-[[5-(1-methyl-3,4-dihydro-2H-quinoxalin-6-yl)-2-thienyl]methyl]-1,2,4-triazol-3-one] | 1.1 | 4000 | 1200 | 390 |
| NC/C(=C\F)Cn1ncn(Cc2ccc(-c3ccc4c(c3F)NCCO4)s2)c1=O [Example 106, 2-[(E)-2-(aminomethyl)-3-fluoro-allyl]-4-[[5-(5-fluoro-3,4-dihydro-2H-1,4-benzoxazin-6-yl)-2-thienyl]methyl]-1,2,4-triazol-3-one] | 0.8 | 11000 | 250 | 2500 |
| NC/C(=C\F)Cn1ncn(Cc2ccc(-c3cc4c(cc3F)OCCN4)s2)c1=O [Example 107, 2-[(E)-2-(aminomethyl)-3-fluoro-allyl]-4-[[5-(7-fluoro-3,4-dihydro-2H-1,4-benzoxazin-6-yl)-2-thienyl]methyl]-1,2,4-triazol-3-one] | 1.5 | 18000 | 320 | 960 |
| NC/C(=C\F)Cn1ncn(Cc2ccc(-c3ccc4c(c3)CCCO4)s2)c1=O [Example 109, 2-[(2E)-2-(aminomethyl)-3-fluoroprop-2-en-1-yl]-4-[5-(3,4-dihydro-2H-chromen-6-yl)thiophen-2-yl]methyl-2,4-dihydro-3H-1,2,4-triazol-3-one hydrochloride] | 2.7 | 25300 | 104 | 2540 |

Results, then the molecule that gave them:

| IC50 (recombinant human VAP-1) [nM] | IC50 [1] [nM] | IC50 [2] [nM] | IC50 [3] [nM] | SMILES |
| --- | --- | --- | --- | --- |
| 0.4 | > 100000 | 530 | 200 | CC1(C)Oc2ccc(-c3ccc(Cn4cnn(C/C(=C/F)CN)c4=O)s3)cc2NC1=O [Example 98, 6-[5-[[1-[(E)-2-(aminomethyl)-3-fluoro-allyl]-5-oxo-1,2,4-triazol-4-yl]methyl]-2-thienyl]-2,2-dimethyl-4H-1,4-benzoxazin-3-one] |
| 0.1 | > 100000 | 810 | 140 | NC/C(=C\F)Cn1ncn(Cc2ccc(-c3ccc4c(c3)NC(=O)OC4)s2)c1=O [Example 100, 7-[5-(1-[(2E)-2-(aminomethyl)-3-fluoroprop-2-en-1-yl]-5-oxo-1,5-dihydro-4H-1,2,4-triazol-4-ylmethyl)thiophen-2-yl]-1,4-dihydro-2H-3,1-benzoxazin-2-one hydrochloride] |
| 1.8 | 38400 | 420 | 8500 | NC/C(=C\F)Cn1ncn(Cc2ccc(-c3ccc4c(c3)NCCO4)s2)c1=O [Example 105, 2-[(E)-2-(aminomethyl)-3-fluoro-allyl]-4-[[5-(3,4-dihydro-2H-1,4-benzoxazin-6-yl)-2-thienyl]methyl]-1,2,4-triazol-3-one] |
| 0.8 | 21000 | 3200 | 250 | Cc1c(-c2ccc(Cn3cnn(C/C(=C/F)CN)c3=O)s2)ccc2c1NCCO2 [Example 108, 2-[(E)-2-(aminomethyl)-3-fluoro-allyl]-4-[[5-(5-methyl-3,4-dihydro-2H-1,4-benzoxazin-6-yl)-2-thienyl]methyl]-1,2,4-triazol-3-one] |
